ChEMBL document CHEMBL5321215, “Discovery of quinazolin-4(3H)-one derivatives as novel AChE inhibitors with anti-inflammatory activities” (Eur J Med Chem, 2023)
Active and inactive are the calls of the source. The calls are words filed in the database; no cut-off is given here.

Tested on: BV-2
Test: Effect on JNK protein level in LPS-induced mouse BV-2 cells at 10 uM incubated for 24 hrs by Western blot analysis
Format: functional, cell-based
Conditions: not given

**Q.** With `COc1cc(OC)c2c(=O)[nH]c(-c3ccc(N4CCN(C)CC4)cc3)nc2c1` as the molecule, how does the Activity read?
**A.** The Activity was “Active”.

Molecular target: Acetylcholinesterase (Electrophorus electricus) (UniProt O42275)
Sequence (O42275 24-633 limits assumed): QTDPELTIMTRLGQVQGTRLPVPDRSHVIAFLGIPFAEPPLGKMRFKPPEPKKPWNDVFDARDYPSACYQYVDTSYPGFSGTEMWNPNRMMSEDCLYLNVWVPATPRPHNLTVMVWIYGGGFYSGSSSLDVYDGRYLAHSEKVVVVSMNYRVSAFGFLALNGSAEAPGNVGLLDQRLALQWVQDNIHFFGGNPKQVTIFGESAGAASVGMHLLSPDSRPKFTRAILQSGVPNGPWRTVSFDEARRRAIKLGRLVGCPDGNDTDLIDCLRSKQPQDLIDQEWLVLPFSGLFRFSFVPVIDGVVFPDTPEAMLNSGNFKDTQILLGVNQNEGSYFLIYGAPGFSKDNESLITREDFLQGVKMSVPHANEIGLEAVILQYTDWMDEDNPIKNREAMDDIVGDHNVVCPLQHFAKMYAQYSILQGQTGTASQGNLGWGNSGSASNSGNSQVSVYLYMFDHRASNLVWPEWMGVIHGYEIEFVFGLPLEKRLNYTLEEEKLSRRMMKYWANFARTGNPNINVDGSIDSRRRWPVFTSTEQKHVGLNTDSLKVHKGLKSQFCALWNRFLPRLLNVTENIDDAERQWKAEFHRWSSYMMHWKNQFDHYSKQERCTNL
Test: Inhibition of electric eel AChE using acetylthiocholine iodide as substrate at 20 uM incubated for 20 mins by Ellman's method relative to control
Conditions: not given

**Q.** How did the inhibition turn out when `COc1cc(OC)c2c(=O)[nH]c(-c3ccc(N4CCNCC4)cc3)nc2c1` was run?
**A.** The inhibition was 44.2%.

**Q.** With `CN1CCN(c2ccc(-c3nc4ccc(Br)cc4c(=O)[nH]3)cc2)CC1` as the molecule, how does the inhibition read?
**A.** The inhibition was 60.8%.

**Q.** For `COc1cc(-c2nc3ccc(NC(=O)CCl)cc3c(=O)[nH]2)cc(OC)c1OC`, which inhibition is on record?
**A.** Its inhibition is 32.5%.

**Q.** Which inhibition does the source give for `COc1cc(OC)c2c(=O)[nH]c(C3CCN(Cc4ccccc4)CC3)nc2c1` here?
**A.** The inhibition was 83.4%.

**Q.** Which inhibition does the source give for `COc1cc(-c2nc3ccc(NCC4CCN(Cc5ccccc5)CC4)cc3c(=O)[nH]2)cc(OC)c1OC` here?
**A.** The inhibition was 69%.

**Q.** `COc1cc(-c2nc3ccc(Br)cc3c(=O)[nH]2)cc(OC)c1OC` was tested. Which inhibition did it give?
**A.** The inhibition was 33.8%.

**Q.** For `COc1cc(OC)c2c(=O)[nH]c(-c3c[nH]c4ccccc34)nc2c1`, which inhibition is on record?
**A.** Its inhibition is 31.9%.

**Q.** With `CN1CCN(c2ccc(-c3nc4ccc([N+](=O)[O-])cc4c(=O)[nH]3)cc2)CC1` as the molecule, how does the inhibition read?
**A.** The inhibition was 69.4%.

**Q.** `COc1cc(OC)c2c(=O)[nH]c(-c3ccc(N4CCN(C)CC4)cc3)nc2c1` was tested. Which inhibition did it give?
**A.** Its inhibition is 91.8%.

Molecular target: Cholinesterase (Equus caballus) (UniProt P81908)
Sequence (P81908 whole entry): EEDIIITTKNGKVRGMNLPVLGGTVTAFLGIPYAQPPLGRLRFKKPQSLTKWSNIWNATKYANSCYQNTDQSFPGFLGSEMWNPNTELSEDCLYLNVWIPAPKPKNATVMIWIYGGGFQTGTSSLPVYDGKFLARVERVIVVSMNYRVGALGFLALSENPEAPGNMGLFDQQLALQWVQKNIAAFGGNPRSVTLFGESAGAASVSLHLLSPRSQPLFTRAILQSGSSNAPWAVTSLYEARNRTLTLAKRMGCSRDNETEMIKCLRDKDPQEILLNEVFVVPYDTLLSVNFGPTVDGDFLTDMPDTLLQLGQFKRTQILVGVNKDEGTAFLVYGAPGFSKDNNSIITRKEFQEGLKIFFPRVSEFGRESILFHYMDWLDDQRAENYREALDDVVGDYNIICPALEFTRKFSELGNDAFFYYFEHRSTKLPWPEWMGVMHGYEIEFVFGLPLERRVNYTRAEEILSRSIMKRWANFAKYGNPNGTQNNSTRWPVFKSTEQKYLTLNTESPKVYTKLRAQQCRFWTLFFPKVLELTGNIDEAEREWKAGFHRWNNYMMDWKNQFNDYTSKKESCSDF
Test: Inhibition of equine serum BChE at 20 uM by Ellman's method relative to control
Format: cell-free
Conditions: not given

**Q.** For `COc1cc(OC)c2c(=O)[nH]c(-c3ccc(N4CCNCC4)cc3)nc2c1`, which inhibition is on record?
**A.** Its inhibition is “inactive”.

**Q.** Which inhibition does the source give for `CN1CCN(c2ccc(-c3nc4ccc(Br)cc4c(=O)[nH]3)cc2)CC1` here?
**A.** The inhibition was 31.2%.

**Q.** Which inhibition does the source give for `COc1cc(-c2nc3ccc(NC(=O)CCl)cc3c(=O)[nH]2)cc(OC)c1OC` here?
**A.** Its inhibition is 9.51%.

**Q.** How did the inhibition turn out when `COc1cc(OC)c2c(=O)[nH]c(C3CCN(Cc4ccccc4)CC3)nc2c1` was run?
**A.** The inhibition was 59.1%.

**Q.** With `COc1cc(-c2nc3ccc(NCC4CCN(Cc5ccccc5)CC4)cc3c(=O)[nH]2)cc(OC)c1OC` as the molecule, how does the inhibition read?
**A.** The inhibition was 68.6%.

**Q.** With `COc1cc(-c2nc3ccc(Br)cc3c(=O)[nH]2)cc(OC)c1OC` as the molecule, how does the inhibition read?
**A.** The inhibition was 12.4%.

**Q.** For `COc1cc(OC)c2c(=O)[nH]c(-c3c[nH]c4ccccc34)nc2c1`, which inhibition is on record?
**A.** Its inhibition is 8.91%.

**Q.** How did the inhibition turn out when `CN1CCN(c2ccc(-c3nc4ccc([N+](=O)[O-])cc4c(=O)[nH]3)cc2)CC1` was run?
**A.** Its inhibition is 63.7%.

**Q.** For `COc1cc(OC)c2c(=O)[nH]c(-c3ccc(N4CCN(C)CC4)cc3)nc2c1`, which inhibition is on record?
**A.** Its inhibition is 38.7%.

Molecular target: Acetylcholinesterase (Electrophorus electricus, UniProt O42275)
Sequence (O42275 whole entry): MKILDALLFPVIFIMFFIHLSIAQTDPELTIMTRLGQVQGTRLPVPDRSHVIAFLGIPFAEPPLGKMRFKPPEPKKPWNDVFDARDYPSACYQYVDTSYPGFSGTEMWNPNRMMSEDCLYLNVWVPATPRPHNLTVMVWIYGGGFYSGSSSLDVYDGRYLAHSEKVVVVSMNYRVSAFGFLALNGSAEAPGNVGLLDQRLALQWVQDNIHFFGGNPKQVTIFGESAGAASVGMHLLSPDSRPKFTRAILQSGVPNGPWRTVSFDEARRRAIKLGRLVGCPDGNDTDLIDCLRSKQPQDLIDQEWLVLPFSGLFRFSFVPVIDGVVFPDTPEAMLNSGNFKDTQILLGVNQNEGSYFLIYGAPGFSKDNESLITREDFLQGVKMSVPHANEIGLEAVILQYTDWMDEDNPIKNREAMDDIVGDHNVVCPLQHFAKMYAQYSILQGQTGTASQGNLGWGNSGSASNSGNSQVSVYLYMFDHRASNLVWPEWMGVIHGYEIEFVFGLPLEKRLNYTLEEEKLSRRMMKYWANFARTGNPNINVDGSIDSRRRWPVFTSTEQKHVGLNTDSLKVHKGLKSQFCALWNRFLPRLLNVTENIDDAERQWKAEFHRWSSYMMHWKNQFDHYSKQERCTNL
Test: Inhibition of electric eel AChE using acetylthiocholine iodide as substrate incubated for 20 mins by Ellman's method
Conditions: not given

**Q.** With `CN1CCN(c2ccc(-c3nc4ccc(Br)cc4c(=O)[nH]3)cc2)CC1` as the molecule, how does the IC50 read?
**A.** Its IC50 is 16.1 µM.

**Q.** `COc1cc(OC)c2c(=O)[nH]c(C3CCN(Cc4ccccc4)CC3)nc2c1` was tested. Which IC50 did it give?
**A.** The IC50 was 7.88 µM.

**Q.** For `COc1cc(-c2nc3ccc(NCC4CCN(Cc5ccccc5)CC4)cc3c(=O)[nH]2)cc(OC)c1OC`, which IC50 is on record?
**A.** Its IC50 is 4.31 µM.

**Q.** `CN1CCN(c2ccc(-c3nc4ccc([N+](=O)[O-])cc4c(=O)[nH]3)cc2)CC1` was tested. Which IC50 did it give?
**A.** The IC50 was 5.49 µM.

**Q.** How did the IC50 turn out when `COc1cc(OC)c2c(=O)[nH]c(-c3ccc(N4CCN(C)CC4)cc3)nc2c1` was run?
**A.** The IC50 was 5.04 µM.

Molecular target: Cholinesterase (Equus caballus, UniProt P81908)
Sequence (P81908 whole entry): as the sequence (P81908 whole entry) above
Test: Inhibition of equine serum BChE by Ellman's method
Format: cell-free
Conditions: not given

**Q.** With `CN1CCN(c2ccc(-c3nc4ccc(Br)cc4c(=O)[nH]3)cc2)CC1` as the molecule, how does the IC50 read?
**A.** The IC50 was > 20 µM.

**Q.** How did the IC50 turn out when `COc1cc(OC)c2c(=O)[nH]c(C3CCN(Cc4ccccc4)CC3)nc2c1` was run?
**A.** The IC50 was 36.9 µM.

**Q.** `COc1cc(-c2nc3ccc(NCC4CCN(Cc5ccccc5)CC4)cc3c(=O)[nH]2)cc(OC)c1OC` was tested. Which IC50 did it give?
**A.** Its IC50 is 11.2 µM.

**Q.** Which IC50 does the source give for `CN1CCN(c2ccc(-c3nc4ccc([N+](=O)[O-])cc4c(=O)[nH]3)cc2)CC1` here?
**A.** The IC50 was > 100 µM.

**Q.** For `COc1cc(OC)c2c(=O)[nH]c(-c3ccc(N4CCN(C)CC4)cc3)nc2c1`, which IC50 is on record?
**A.** Its IC50 is > 20 µM.

Tested on: RAW264.7
Test: Antiinflammatory activity against mouse RAW264.7 cells assessed as inhibition of LPS-induced nitric oxide production at 20 uM preincubated for 24 hrs followed by LPS stimulation by Griess reagent-based colorimetric assay relative to control
Format: functional
Parameters: scale not given: the % may be the effect or the level left
Conditions: not given

**Q.** `CN1CCN(c2ccc(-c3nc4ccc(Br)cc4c(=O)[nH]3)cc2)CC1` was tested. Which Activity did it give?
**A.** The Activity was 42.7%.

**Q.** With `COc1cc(OC)c2c(=O)[nH]c(C3CCN(Cc4ccccc4)CC3)nc2c1` as the molecule, how does the Activity read?
**A.** Its Activity is 60.5%.

**Q.** Which Activity does the source give for `COc1cc(-c2nc3ccc(NCC4CCN(Cc5ccccc5)CC4)cc3c(=O)[nH]2)cc(OC)c1OC` here?
**A.** Its Activity is 94%.

**Q.** `CN1CCN(c2ccc(-c3nc4ccc([N+](=O)[O-])cc4c(=O)[nH]3)cc2)CC1` was tested. Which Activity did it give?
**A.** Its Activity is 27.1%.

**Q.** With `COc1cc(OC)c2c(=O)[nH]c(-c3ccc(N4CCN(C)CC4)cc3)nc2c1` as the molecule, how does the Activity read?
**A.** Its Activity is 116.4%.

Tested on: RAW264.7
Test: Antiinflammatory activity against mouse RAW264.7 cells assessed as inhibition of LPS-induced nitric oxide production preincubated for 24 hrs followed by LPS stimulation by Griess reagent-based colorimetric assay
Format: functional, cell-based
Conditions: not given

**Q.** With `COc1cc(OC)c2c(=O)[nH]c(C3CCN(Cc4ccccc4)CC3)nc2c1` as the molecule, how does the IC50 read?
**A.** Its IC50 is 21.3 µM.

**Q.** How did the IC50 turn out when `COc1cc(OC)c2c(=O)[nH]c(-c3ccc(N4CCN(C)CC4)cc3)nc2c1` was run?
**A.** Its IC50 is 3.29 µM.

Molecular target: Acetylcholinesterase (Electrophorus electricus) (UniProt O42275)
Test: Non competitive inhibition of Electric eel AChE using acetylthiocholine iodide as substrate assessed as decrease in Vmax with constant Km by Lineweaver-Burk plot analysis
Conditions: not given

**Q.** For `COc1cc(-c2nc3ccc(NCC4CCN(Cc5ccccc5)CC4)cc3c(=O)[nH]2)cc(OC)c1OC`, which inhibition is on record?
**A.** Its inhibition is “Active”.

**Q.** For `COc1cc(OC)c2c(=O)[nH]c(-c3ccc(N4CCN(C)CC4)cc3)nc2c1`, which inhibition is on record?
**A.** The inhibition was “Active”.

Molecular target: Cholinesterase (Equus caballus) (UniProt P81908)
Test: Non competitive inhibition of equine serum BChE assessed as decrease in Vmax with constant Km by Lineweaver-Burk plot analysis
Format: cell-free
Conditions: not given

**Q.** For `COc1cc(-c2nc3ccc(NCC4CCN(Cc5ccccc5)CC4)cc3c(=O)[nH]2)cc(OC)c1OC`, which inhibition is on record?
**A.** Its inhibition is “Active”.

Tested on: BV-2
Test: Cytotoxicity against mouse BV-2 cells assessed as reduction in cell viability at 10 uM incubated for 24 hrs by CCK-8 assay
Format: toxicity, cell-based
Conditions: bv-2, 24 h

**Q.** `COc1cc(-c2nc3ccc(NCC4CCN(Cc5ccccc5)CC4)cc3c(=O)[nH]2)cc(OC)c1OC` was tested. Which Activity did it give?
**A.** Its Activity is “Toxic”.

**Q.** Which Activity does the source give for `COc1cc(OC)c2c(=O)[nH]c(-c3ccc(N4CCN(C)CC4)cc3)nc2c1` here?
**A.** The Activity was “Non-Toxic”.

Tested on: BV-2
Test: Antiinflammatory activity against mouse BV-2 cells assessed as reduction in LPS-induced IL-1beta mRNA expression measured after 24 hrs by qRT-PCR analysis
Format: functional, cell-based
Conditions: dose 1.25-10 µM

**Q.** `COc1cc(OC)c2c(=O)[nH]c(-c3ccc(N4CCN(C)CC4)cc3)nc2c1` was tested. Which Activity did it give?
**A.** The Activity was “Dose-Dependent Effect”.

Tested on: BV-2
Test: Antiinflammatory activity against mouse BV-2 cells assessed as reduction in LPS-induced TNF-alpha mRNA expression measured after 24 hrs by qRT-PCR analysis
Format: functional, cell-based
Conditions: dose 1.25-10 µM

**Q.** For `COc1cc(OC)c2c(=O)[nH]c(-c3ccc(N4CCN(C)CC4)cc3)nc2c1`, which Activity is on record?
**A.** Its Activity is “Dose-Dependent Effect”.

Tested on: BV-2
Test: Antiinflammatory activity against mouse BV-2 cells assessed as reduction in LPS-induced IL-6 mRNA expression level measured after 24 hrs by qRT-PCR analysis
Format: functional, cell-based
Conditions: dose 1.25-10 µM

**Q.** `COc1cc(OC)c2c(=O)[nH]c(-c3ccc(N4CCN(C)CC4)cc3)nc2c1` was tested. Which Activity did it give?
**A.** The Activity was “Dose-Dependent Effect”.

Tested on: BV-2
Test: Antiinflammatory activity against mouse BV-2 cells assessed as reduction in LPS-induced CCL2 mRNA expression measured after 24 hrs by qRT-PCR analysis
Format: functional, cell-based
Conditions: dose 1.25-10 µM

**Q.** With `COc1cc(OC)c2c(=O)[nH]c(-c3ccc(N4CCN(C)CC4)cc3)nc2c1` as the molecule, how does the Activity read?
**A.** The Activity was “Dose-Dependent Effect”.

Tested on: BV-2
Test: Inhibition of NF-kappaB pathway in LPS-induced mouse BV-2 cells assessed as reduction in p65 protein expression level at 10 uM incubated for 24 hrs by Western blot analysis
Format: cell-based
Conditions: not given

**Q.** Which inhibition does the source give for `COc1cc(OC)c2c(=O)[nH]c(-c3ccc(N4CCN(C)CC4)cc3)nc2c1` here?
**A.** Its inhibition is “Active”.

Tested on: BV-2
Test: Inhibition of NF-kappaB pathway in LPS-induced mouse BV-2 cells assessed as reduction in phosphorylated p65 protein expression level at 10 uM incubated for 24 hrs by Western blot analysis
Format: cell-based
Conditions: not given

**Q.** With `COc1cc(OC)c2c(=O)[nH]c(-c3ccc(N4CCN(C)CC4)cc3)nc2c1` as the molecule, how does the inhibition read?
**A.** The inhibition was “Active”.

Molecular target: NACHT, LRR and PYD domains-containing protein 3 (Mus musculus) (UniProt Q8R4B8)
Sequence (Q8R4B8 whole entry, the tested form may be a part): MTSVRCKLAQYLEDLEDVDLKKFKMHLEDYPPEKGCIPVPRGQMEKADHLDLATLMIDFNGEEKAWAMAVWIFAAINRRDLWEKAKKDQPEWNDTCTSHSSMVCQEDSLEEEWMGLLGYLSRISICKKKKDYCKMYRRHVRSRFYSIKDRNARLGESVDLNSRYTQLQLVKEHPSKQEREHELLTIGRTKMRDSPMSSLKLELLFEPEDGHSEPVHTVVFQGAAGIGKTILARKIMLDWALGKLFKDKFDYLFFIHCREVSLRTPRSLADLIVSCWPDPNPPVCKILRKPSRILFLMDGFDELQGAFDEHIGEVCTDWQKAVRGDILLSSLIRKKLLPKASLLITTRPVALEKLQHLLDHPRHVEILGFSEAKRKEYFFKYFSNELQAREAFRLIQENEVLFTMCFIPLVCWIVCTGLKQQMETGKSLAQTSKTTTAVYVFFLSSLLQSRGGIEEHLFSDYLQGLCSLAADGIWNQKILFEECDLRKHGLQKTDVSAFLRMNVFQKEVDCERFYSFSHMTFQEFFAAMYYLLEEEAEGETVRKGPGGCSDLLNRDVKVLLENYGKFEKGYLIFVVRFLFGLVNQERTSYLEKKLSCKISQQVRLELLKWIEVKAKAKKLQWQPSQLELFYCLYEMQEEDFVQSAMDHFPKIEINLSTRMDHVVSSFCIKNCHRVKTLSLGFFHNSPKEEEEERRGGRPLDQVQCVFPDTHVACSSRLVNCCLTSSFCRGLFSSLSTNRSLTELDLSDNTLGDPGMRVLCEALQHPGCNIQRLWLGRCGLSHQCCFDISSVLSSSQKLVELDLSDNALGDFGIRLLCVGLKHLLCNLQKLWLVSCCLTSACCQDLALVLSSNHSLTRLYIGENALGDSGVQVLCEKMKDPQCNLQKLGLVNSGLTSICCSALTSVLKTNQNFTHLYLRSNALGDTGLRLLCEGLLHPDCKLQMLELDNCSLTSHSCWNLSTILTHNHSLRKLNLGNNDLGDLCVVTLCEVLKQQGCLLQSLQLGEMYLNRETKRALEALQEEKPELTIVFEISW
Test: Inhibition of NLRP3 inflammasome in LPS-induced mouse BV-2 cells assessed as decrease in NLRP3 protein expression at 10 uM incubated for 24 hrs by Western blot analysis
Format: cell-based
Conditions: not given

**Q.** Which inhibition does the source give for `COc1cc(OC)c2c(=O)[nH]c(-c3ccc(N4CCN(C)CC4)cc3)nc2c1` here?
**A.** The inhibition was “Active”.

Tested on: BV-2
Test: Inhibition of MAPK/JNK signalling pathway in LPS-induced mouse BV-2 cells assessed as reduction in JNK phosphorylation level at 10 uM incubated for 24 hrs by Western blot analysis
Format: cell-based
Conditions: not given

**Q.** For `COc1cc(OC)c2c(=O)[nH]c(-c3ccc(N4CCN(C)CC4)cc3)nc2c1`, which inhibition is on record?
**A.** Its inhibition is “Active”.
